Source: PMC9401864, “Cell‐Free Protein Synthesis for the Screening of Novel Azoreductases and Their Preferred Electron Donor” (Chembiochem, 2022)

Columns and labels:
Format in all cases: biochemical
StypAzoR [1] = target: T1, StypAzoR (Salmonella enterica, UniProt P63462); assay: Brilliant Black degradation at […] nm, reconstituted cell-free (PURE) mix; conditions: 150 uM NADH; 50 uM FMN; 100 mM sodium phosphate pH 6; 25 °C; 30 uM dye
T1 construct: gene azoR; codon-optimised gene in pET-24a(+); cell-free synthesis (PUREfrex2.0), unpurified
T1 sequence (P63462 2-201): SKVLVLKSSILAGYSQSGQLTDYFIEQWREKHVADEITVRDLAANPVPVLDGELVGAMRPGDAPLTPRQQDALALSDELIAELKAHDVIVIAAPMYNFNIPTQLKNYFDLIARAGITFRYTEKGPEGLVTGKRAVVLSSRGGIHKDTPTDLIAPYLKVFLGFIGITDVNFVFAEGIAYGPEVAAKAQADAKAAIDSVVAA

RopaAzoR [2] = target: T2, RopaAzoR (Rhodococcus opacus, UniProt A0A1B1KJ01); assay: as above; conditions: 150 uM NADH; 50 uM FMN; 100 mM sodium phosphate pH 6; 25 °C; 30 uM dye
T2 construct: gene azoR; cell-free synthesis (PUREfrex2.0), unpurified
T2 sequence (A0A1B1KJ01 1-214): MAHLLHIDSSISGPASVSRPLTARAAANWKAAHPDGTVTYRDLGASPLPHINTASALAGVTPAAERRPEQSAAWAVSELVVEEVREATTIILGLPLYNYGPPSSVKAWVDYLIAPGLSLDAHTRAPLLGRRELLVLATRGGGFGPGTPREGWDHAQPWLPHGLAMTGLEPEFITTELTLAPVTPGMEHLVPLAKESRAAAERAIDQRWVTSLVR

TvarAzoR [3] = target: T3, TvarAzoR (Trichormus variabilis, UniProt Q3M1N6); assay: as above; conditions: 150 uM NADH; 50 uM FMN; 100 mM sodium phosphate pH 6; 25 °C; 30 uM dye
T3 construct: gene azoR1; codon-optimised gene in pET-24a(+); cell-free synthesis (PUREfrex2.0), unpurified
T3 sequence (Q3M1N6 1-207): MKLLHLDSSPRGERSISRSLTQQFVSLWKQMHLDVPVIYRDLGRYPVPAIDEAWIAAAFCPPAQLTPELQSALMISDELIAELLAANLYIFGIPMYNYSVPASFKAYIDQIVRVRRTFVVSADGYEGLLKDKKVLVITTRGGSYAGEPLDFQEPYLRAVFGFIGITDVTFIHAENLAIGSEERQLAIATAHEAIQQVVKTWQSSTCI

RferAzoR [4] = target: T4, RferAzoR (Rhodoferax ferrireducens, UniProt Q220J4); assay: as above; conditions: 150 uM NADH; 50 uM FMN; 100 mM sodium phosphate pH 6; 25 °C; 30 uM dye
T4 construct: gene azoR; codon-optimised gene in pET-24a(+); cell-free synthesis (PUREfrex2.0), unpurified
T4 sequence (Q220J4 1-203): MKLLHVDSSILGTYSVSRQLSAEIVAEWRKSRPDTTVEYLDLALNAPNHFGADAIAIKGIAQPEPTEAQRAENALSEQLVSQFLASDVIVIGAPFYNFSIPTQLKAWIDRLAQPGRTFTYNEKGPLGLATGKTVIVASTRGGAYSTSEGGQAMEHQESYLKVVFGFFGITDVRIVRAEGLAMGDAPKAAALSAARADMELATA

EfaeAzoR [5] = target: T5, EfaeAzoR (Enterococcus faecalis, UniProt Q831B2); assay: methyl red degradation at […] nm with NADH as electron donor, reconstituted cell-free (PURE) mix; conditions: 30 uM methyl red; 150 uM NADH; 50 uM FMN; 100 mM sodium phosphate pH 6; 25 °C
T5 construct: gene azoR; codon-optimised gene in pET-24a(+); cell-free synthesis (PUREfrex2.0), unpurified
T5 sequence (Q831B2 whole entry): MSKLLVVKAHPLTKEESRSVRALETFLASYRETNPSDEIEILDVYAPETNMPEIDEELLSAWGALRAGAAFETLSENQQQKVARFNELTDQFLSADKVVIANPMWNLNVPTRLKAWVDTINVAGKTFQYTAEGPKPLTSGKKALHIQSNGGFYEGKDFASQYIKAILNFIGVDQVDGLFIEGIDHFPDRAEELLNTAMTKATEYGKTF

PaerAzoR [6] = target: T6, PaerAzoR (Pseudomonas aeruginosa, UniProt Q9I5F3); assay: methyl red degradation at […] nm with BNAH as electron donor, reconstituted cell-free (PURE) mix; conditions: 30 uM methyl red; 150 uM BNAH; 50 uM FMN; 100 mM sodium phosphate pH 6; 25 °C
T6 construct: gene azoR1; codon-optimised gene in pET-24a(+); cell-free synthesis (PUREfrex2.0), unpurified
T6 sequence (Q9I5F3 1-212): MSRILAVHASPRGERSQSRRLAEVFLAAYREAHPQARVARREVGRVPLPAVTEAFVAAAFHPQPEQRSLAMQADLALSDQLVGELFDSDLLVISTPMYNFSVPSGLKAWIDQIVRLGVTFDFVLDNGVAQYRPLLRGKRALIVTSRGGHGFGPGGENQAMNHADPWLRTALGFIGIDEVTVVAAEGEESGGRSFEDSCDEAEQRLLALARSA

RferAzoR [7] = target: T4, RferAzoR; assay: methyl red degradation at […] nm, reconstituted cell-free (PURE) mix; conditions: 150 uM NADH, NADPH or BNAH; 50 uM FMN; 100 mM sodium phosphate pH 6; 25 °C; 30 uM dye
RopaAzoR [8] = target: T2, RopaAzoR; assay: as above; conditions: 150 uM NADH; 50 uM FMN; 100 mM sodium phosphate pH 6; 25 °C; 30 uM dye
PaerAzoR [9] = target: T6, PaerAzoR; assay: as above; conditions: 150 uM BNAH; 50 uM FMN; 100 mM sodium phosphate pH 6; 25 °C; 30 uM dye
StypAzoR [10] = target: T1, StypAzoR; assay: as above; conditions: 150 uM NADH, NADPH or BNAH; 50 uM FMN; 100 mM sodium phosphate pH 6; 25 °C; 30 uM dye
EfaeAzoR [11] = target: T5, EfaeAzoR; assay: as above; conditions: 150 uM NADH, NADPH or BNAH; 50 uM FMN; 100 mM sodium phosphate pH 6; 25 °C; 30 uM dye
TvarAzoR [12] = target: T3, TvarAzoR; assay: as above; conditions: 150 uM NADH, NADPH or BNAH; 50 uM FMN; 100 mM sodium phosphate pH 6; 25 °C; 30 uM dye

SMILES: CC(=O)Nc1ccc(S(=O)(=O)O)c2cc(S(=O)(=O)O)c(N=Nc3ccc(N=Nc4ccc(S(=O)(=O)O)cc4)c4ccc(S(=O)(=O)O)cc34)c(O)c12 [Brilliant Black]
- Brilliant Black degradation at 570 nm, reconstituted cell-free (PURE) mix (StypAzoR [1]): All five enzymes and RopaAzoR were able to degrade BB.
- Brilliant Black degradation at 570 nm, reconstituted cell-free (PURE) mix (RopaAzoR [2]): All five enzymes and RopaAzoR were able to degrade BB.
- Brilliant Black degradation at 570 nm, reconstituted cell-free (PURE) mix (TvarAzoR [3]): All five enzymes and RopaAzoR were able to degrade BB.
- Brilliant Black degradation at 570 nm, reconstituted cell-free (PURE) mix (RferAzoR [4]): All five enzymes and RopaAzoR were able to degrade BB.

SMILES: NC(=O)C1=CN([C@@H]2O[C@H](COP(=O)(O)OP(=O)(O)OC[C@H]3O[C@@H](n4cnc5c(N)ncnc54)[C@H](O)[C@@H]3O)[C@@H](O)[C@H]2O)C=CC1 [NADH]
- methyl red degradation at 430 nm with NADH as electron donor, reconstituted cell (EfaeAzoR [5]): EfaeAzoR seems to have a strong preference for NADH

SMILES: NC(=O)C1=CN(Cc2ccccc2)C=CC1 [BNAH, 1‐benzyl‐1,4‐dihydronicotinamide]
- methyl red degradation at 430 nm with BNAH as electron donor, reconstituted cell (PaerAzoR [6]): PaerAzoR catalyzed the degradation of methyl red using BNAH as co‐substrate

SMILES: CN(C)c1ccc(/N=N/c2ccccc2C(=O)O)cc1 [methyl red]
- methyl red degradation at 430 nm, reconstituted cell-free (PURE) mix (RferAzoR [7]): all undescribed enzymes catalyzed the degradation of methyl red
- methyl red degradation at 430 nm, reconstituted cell-free (PURE) mix (RopaAzoR [8]): active RopaAzoR was synthesized, and substrate degradation was detected in the activity assay
- methyl red degradation at 430 nm, reconstituted cell-free (PURE) mix (PaerAzoR [9]): PaerAzoR catalyzed the degradation of methyl red using BNAH as co‐substrate
- methyl red degradation at 430 nm, reconstituted cell-free (PURE) mix (StypAzoR [10]): all undescribed enzymes catalyzed the degradation of methyl red
- methyl red degradation at 430 nm, reconstituted cell-free (PURE) mix (EfaeAzoR [11]): Noteworthy are the very high activities of StypAzoR and EfaeAzoR
- methyl red degradation at 430 nm, reconstituted cell-free (PURE) mix (TvarAzoR [12]): all undescribed enzymes catalyzed the degradation of methyl red
